Measured values published in patent US20070149535A1, “Protein kinase inhibitors” (ONCALIS AG, priority 2004, published 2007).

Tests used:
Assay in all cases: Yeast growth assay, specificity profiling;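 for EGFR (L858R) growth restoration: Parenthesized + marks a result obtained in a different yeast background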
Assay type in all cases: cell-based
Parameters in all cases: key: “−” indicates no growth restoration i.e. no activity against the particular kinase; “+”, “++”, and “+++” indicate activity detected by restoration of growth, classified into three categories of potency; “+”, “++”, and “+++” indicate activity detected by restoration of growth, classified into three categories of potency; “+”, “++”, and “+++” indicate activity detected by restoration of growth, classified into three categories of potency
Settings in all cases: 7 concentrations between 0.2 and 100 μM
EGFR (L858R) = target: T1, EGFR (L858R) (Homo sapiens, UniProt P00533, L858R);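 note: Parenthesized + marks a result obtained in a different yeast background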
T1 construct: expressed in transfected cells; host or cells: yeast
In short: (§1)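 Yeast positive-selection assay: RTK plasmid expression switched on by galactose suppresses growth; kinase inhibitors restore it. Potency classes derive from peak growth rescue and its concentration across a 0.2–100 μM, 7-point series.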

FGFR-3 = target: T2, FGFR-3 (Homo sapiens, UniProt P22607)
T2 construct: expressed in transfected cells; host or cells: yeast
T2 sequence (P22607 23-806): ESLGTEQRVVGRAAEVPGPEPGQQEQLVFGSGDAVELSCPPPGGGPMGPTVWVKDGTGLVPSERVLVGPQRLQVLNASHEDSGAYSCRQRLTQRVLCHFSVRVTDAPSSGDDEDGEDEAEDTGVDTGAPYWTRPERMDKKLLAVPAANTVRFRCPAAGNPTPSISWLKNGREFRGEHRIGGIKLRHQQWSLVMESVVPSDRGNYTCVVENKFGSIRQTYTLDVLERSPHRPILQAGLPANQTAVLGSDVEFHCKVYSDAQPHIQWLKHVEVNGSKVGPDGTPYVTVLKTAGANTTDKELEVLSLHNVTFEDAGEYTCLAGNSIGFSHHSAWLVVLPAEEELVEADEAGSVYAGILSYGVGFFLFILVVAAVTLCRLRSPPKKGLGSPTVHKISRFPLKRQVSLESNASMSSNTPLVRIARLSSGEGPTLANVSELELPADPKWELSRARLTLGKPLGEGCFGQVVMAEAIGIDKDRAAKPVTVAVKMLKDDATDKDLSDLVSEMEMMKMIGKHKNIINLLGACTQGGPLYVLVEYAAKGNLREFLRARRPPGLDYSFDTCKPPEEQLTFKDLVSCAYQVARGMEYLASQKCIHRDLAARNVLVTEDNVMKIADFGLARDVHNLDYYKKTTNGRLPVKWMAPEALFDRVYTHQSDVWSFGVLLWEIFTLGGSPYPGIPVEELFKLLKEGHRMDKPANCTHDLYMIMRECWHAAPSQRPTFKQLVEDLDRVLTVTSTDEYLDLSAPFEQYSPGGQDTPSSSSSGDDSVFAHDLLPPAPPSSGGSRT
In short: as §1

ErbB2 = target: T3, ErbB2 (Homo sapiens, UniProt P04626)
T3 construct: expressed in transfected cells; host or cells: yeast
T3 sequence (P04626 23-1255): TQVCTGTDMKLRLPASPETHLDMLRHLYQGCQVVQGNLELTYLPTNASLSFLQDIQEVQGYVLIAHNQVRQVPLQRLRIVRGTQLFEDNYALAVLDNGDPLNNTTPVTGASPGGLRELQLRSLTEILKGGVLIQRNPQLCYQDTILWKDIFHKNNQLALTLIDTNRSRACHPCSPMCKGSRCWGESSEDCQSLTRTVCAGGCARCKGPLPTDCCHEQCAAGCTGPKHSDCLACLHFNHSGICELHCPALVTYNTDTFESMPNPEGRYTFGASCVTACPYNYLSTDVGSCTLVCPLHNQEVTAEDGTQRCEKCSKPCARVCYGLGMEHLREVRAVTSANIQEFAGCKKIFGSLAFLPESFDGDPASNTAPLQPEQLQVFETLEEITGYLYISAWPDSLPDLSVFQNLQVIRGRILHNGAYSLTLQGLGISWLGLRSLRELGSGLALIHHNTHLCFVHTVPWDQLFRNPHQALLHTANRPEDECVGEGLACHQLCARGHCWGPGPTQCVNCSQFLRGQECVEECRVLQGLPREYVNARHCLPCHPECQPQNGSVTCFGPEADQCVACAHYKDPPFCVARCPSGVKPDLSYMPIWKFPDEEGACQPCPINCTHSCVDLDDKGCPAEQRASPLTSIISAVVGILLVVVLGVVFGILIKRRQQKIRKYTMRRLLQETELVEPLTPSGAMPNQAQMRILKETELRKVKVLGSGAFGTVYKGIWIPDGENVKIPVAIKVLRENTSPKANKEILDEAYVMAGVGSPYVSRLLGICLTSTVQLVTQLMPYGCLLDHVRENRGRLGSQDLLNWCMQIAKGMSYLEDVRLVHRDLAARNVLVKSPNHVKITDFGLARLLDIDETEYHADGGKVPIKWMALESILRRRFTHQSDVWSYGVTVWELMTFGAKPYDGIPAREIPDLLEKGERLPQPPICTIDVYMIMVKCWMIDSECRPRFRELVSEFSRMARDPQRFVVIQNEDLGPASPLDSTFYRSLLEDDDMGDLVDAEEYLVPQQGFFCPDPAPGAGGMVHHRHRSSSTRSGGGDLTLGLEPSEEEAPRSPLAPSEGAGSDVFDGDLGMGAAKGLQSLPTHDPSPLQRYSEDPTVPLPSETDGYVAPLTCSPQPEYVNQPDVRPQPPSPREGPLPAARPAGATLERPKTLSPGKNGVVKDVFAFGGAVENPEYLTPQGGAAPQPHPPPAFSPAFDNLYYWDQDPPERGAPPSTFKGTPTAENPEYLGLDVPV
In short: as §1

PDGFRa = target: T4, PDGFRa (Homo sapiens, UniProt P16234)
T4 construct: expressed in transfected cells; host or cells: yeast
T4 sequence (P16234 24-1089): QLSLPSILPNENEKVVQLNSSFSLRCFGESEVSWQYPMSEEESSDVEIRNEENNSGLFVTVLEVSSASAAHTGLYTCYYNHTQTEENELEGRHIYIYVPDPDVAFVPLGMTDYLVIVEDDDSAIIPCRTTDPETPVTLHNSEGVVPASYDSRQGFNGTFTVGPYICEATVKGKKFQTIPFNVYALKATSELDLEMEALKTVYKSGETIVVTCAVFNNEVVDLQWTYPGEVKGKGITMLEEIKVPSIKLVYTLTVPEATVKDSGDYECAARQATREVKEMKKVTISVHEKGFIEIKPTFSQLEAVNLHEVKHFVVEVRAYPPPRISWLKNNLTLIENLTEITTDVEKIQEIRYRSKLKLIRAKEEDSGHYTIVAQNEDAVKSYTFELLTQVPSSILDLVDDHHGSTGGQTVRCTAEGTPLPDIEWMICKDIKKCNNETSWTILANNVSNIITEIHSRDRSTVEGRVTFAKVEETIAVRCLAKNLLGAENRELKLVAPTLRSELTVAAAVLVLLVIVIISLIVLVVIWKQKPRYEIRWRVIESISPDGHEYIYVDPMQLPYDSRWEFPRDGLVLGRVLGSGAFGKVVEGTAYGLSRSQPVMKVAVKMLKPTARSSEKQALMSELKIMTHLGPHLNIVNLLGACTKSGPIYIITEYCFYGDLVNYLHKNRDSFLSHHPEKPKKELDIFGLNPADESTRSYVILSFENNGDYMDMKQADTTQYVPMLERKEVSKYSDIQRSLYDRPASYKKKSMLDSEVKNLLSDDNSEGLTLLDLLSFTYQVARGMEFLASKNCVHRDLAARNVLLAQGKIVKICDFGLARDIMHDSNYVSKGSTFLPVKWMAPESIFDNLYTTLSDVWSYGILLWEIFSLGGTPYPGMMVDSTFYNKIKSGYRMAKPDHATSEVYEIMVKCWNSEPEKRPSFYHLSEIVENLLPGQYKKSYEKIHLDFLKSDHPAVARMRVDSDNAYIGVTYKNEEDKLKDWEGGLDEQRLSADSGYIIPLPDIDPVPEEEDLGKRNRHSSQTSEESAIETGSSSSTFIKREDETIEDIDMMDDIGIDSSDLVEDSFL
In short: as §1

FGFR-2 = target: T5, FGFR-2 (Homo sapiens, UniProt P21802)
T5 construct: expressed in transfected cells; host or cells: yeast
T5 sequence (P21802 22-821): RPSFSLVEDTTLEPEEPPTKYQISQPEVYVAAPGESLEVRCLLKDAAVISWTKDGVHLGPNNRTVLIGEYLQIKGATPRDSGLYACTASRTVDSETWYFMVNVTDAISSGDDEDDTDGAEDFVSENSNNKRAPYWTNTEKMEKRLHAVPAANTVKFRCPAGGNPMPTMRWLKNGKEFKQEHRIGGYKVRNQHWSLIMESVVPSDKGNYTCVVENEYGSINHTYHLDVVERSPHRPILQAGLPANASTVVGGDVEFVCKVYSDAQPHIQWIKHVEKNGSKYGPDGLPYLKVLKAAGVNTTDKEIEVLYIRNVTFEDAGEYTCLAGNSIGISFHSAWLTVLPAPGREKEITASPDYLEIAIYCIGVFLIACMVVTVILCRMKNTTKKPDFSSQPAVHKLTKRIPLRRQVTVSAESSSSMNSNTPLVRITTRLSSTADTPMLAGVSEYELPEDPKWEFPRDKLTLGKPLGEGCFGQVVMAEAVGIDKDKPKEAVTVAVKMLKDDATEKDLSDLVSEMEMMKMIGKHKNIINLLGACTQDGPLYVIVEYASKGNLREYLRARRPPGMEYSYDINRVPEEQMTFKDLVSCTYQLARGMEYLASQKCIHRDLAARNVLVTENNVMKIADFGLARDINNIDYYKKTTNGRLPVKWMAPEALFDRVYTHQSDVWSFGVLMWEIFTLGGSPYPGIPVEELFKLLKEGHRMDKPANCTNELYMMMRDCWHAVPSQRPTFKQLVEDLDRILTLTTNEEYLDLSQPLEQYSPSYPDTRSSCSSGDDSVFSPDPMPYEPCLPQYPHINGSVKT
In short: as §1

CSF-1R = target: T6, CSF-1R (Homo sapiens, UniProt P07333)
T6 construct: expressed in transfected cells; host or cells: yeast
T6 sequence (P07333 20-972): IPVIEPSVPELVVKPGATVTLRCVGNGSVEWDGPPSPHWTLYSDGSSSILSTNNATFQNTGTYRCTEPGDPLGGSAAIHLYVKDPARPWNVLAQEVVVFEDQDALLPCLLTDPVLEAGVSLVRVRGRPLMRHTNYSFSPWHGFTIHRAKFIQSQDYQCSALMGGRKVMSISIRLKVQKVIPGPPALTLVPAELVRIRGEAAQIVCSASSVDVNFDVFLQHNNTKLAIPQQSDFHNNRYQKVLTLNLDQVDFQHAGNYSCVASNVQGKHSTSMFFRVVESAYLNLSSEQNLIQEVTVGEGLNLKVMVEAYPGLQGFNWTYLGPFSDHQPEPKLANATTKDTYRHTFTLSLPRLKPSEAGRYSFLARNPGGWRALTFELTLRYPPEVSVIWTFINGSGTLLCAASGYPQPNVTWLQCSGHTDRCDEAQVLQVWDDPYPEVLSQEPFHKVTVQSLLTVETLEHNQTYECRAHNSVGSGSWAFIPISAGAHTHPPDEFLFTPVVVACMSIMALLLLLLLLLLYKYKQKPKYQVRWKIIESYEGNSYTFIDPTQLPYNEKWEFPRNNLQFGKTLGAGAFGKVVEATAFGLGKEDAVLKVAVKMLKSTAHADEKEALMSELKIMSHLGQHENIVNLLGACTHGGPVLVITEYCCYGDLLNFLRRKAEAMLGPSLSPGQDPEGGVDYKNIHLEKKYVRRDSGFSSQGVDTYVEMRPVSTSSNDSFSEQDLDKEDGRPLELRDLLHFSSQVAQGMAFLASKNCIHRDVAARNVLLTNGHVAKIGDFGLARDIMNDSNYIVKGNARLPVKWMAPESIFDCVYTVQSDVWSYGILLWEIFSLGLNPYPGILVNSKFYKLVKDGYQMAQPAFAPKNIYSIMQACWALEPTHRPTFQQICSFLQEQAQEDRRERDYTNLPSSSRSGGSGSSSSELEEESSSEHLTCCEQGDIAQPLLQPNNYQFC
In short: as §1

FLT3 = target: T7, FLT3 (Homo sapiens, UniProt P36888)
T7 construct: expressed in transfected cells; host or cells: yeast
T7 sequence (P36888 27-993): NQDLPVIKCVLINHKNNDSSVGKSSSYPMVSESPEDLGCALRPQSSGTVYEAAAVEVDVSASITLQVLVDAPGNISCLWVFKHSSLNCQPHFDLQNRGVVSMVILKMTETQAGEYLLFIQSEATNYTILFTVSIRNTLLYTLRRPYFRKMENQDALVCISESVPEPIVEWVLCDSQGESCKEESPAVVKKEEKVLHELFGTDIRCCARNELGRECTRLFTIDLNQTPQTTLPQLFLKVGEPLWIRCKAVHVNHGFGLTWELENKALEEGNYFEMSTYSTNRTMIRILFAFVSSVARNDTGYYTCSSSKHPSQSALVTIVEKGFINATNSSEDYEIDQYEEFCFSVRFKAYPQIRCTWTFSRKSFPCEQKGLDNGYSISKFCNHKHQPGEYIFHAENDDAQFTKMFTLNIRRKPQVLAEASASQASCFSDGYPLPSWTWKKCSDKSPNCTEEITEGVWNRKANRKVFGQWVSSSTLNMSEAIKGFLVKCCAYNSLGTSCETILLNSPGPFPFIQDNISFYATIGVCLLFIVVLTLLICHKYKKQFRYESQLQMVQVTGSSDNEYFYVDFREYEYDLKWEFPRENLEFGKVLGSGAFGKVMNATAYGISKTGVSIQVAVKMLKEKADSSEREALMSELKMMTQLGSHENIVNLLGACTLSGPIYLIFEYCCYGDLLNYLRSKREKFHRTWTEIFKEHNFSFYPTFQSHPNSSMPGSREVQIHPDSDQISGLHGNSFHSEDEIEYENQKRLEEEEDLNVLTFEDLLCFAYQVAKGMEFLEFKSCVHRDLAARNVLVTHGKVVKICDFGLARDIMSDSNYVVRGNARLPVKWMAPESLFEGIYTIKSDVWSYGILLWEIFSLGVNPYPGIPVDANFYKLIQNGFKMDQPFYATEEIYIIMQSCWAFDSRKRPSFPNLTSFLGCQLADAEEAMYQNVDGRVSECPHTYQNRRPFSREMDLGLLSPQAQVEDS
In short: as §1

SMILES: Clc1ccc(Nc2c(-c3ccccc3)nc3cnccn23)cc1 [compound 16, (4-Chloro-phenyl)-(2-phenyl-imidazo[1,2-a]pyrazin-3-yl)-amine]
- EGFR (L858R) growth restoration (EGFR (L858R)): −
- FGFR-3 growth restoration (FGFR-3): −
- ErbB2 growth restoration (ErbB2): −
- PDGFRa growth restoration (PDGFRa): −
- FGFR-2 growth restoration (FGFR-2): −
- CSF-1R growth restoration (CSF-1R): −
- FLT3 growth restoration (FLT3): −

SMILES: Cc1nccn2c(Nc3ccc(F)c(F)c3)c(-c3ccccc3)nc12 [compound 45, (3,4-Difluoro-phenyl)-(8-methyl-2-phenyl-imidazo[1,2-a]pyrazin-3-yl)-amine]
- EGFR (L858R) growth restoration (EGFR (L858R)): −
- FGFR-3 growth restoration (FGFR-3): −
- ErbB2 growth restoration (ErbB2): −
- PDGFRa growth restoration (PDGFRa): −
- FGFR-2 growth restoration (FGFR-2): −
- CSF-1R growth restoration (CSF-1R): −
- FLT3 growth restoration (FLT3): −

SMILES: Cc1cccc(Nc2c(-c3ccccc3)nc3cnccn23)c1 [compound 34, (2-Phenyl-imidazo[1,2-a]pyrazin-3-yl)-m-tolyl-amine]
- EGFR (L858R) growth restoration (EGFR (L858R)): −
- FGFR-3 growth restoration (FGFR-3): −
- ErbB2 growth restoration (ErbB2): −
- PDGFRa growth restoration (PDGFRa): −
- FGFR-2 growth restoration (FGFR-2): −
- CSF-1R growth restoration (CSF-1R): −
- FLT3 growth restoration (FLT3): −

SMILES: Clc1cccc(Nc2c(-c3ccccc3)nc3cnccn23)c1 [compound 35, (3-Chloro-phenyl)-(2-phenyl-imidazo[1,2-a]pyrazin-3-yl)-amine]
- EGFR (L858R) growth restoration (EGFR (L858R)): +
- FGFR-3 growth restoration (FGFR-3): −
- ErbB2 growth restoration (ErbB2): −
- PDGFRa growth restoration (PDGFRa): −
- FGFR-2 growth restoration (FGFR-2): −
- CSF-1R growth restoration (CSF-1R): −
- FLT3 growth restoration (FLT3): −

SMILES: Cc1nccn2c(Nc3cccc(Cl)c3)c(-c3ccccc3)nc12 [compound 3, (3-Chloro-phenyl)-(8-methyl-2-phenyl-imidazo[1,2-a]pyrazin-3-yl)-amine]
- EGFR (L858R) growth restoration (EGFR (L858R)): +
- FGFR-3 growth restoration (FGFR-3): −
- ErbB2 growth restoration (ErbB2): −
- PDGFRa growth restoration (PDGFRa): −
- FGFR-2 growth restoration (FGFR-2): −
- CSF-1R growth restoration (CSF-1R): −
- FLT3 growth restoration (FLT3): −

SMILES: COc1cccc(-c2nc3cnccn3c2Nc2cccc(Cl)c2)c1 [compound 7, (3-Chloro-phenyl)-[2-(3-methoxy-phenyl)-imidazo[1,2-a]pyrazin-3-yl]-amine]
- EGFR (L858R) growth restoration (EGFR (L858R)): +
- FGFR-3 growth restoration (FGFR-3): −
- ErbB2 growth restoration (ErbB2): −
- PDGFRa growth restoration (PDGFRa): −
- FGFR-2 growth restoration (FGFR-2): −
- CSF-1R growth restoration (CSF-1R): −
- FLT3 growth restoration (FLT3): −

SMILES: Brc1cccc(Nc2c(-c3ccccc3)nc3cnccn23)c1 [compound 14, (3-Bromo-phenyl)-(2-phenyl-imidazo[1,2-a]pyrazin-3-yl)-amine]
- EGFR (L858R) growth restoration (EGFR (L858R)): −
- FGFR-3 growth restoration (FGFR-3): −
- ErbB2 growth restoration (ErbB2): −
- PDGFRa growth restoration (PDGFRa): −
- FGFR-2 growth restoration (FGFR-2): −
- CSF-1R growth restoration (CSF-1R): −
- FLT3 growth restoration (FLT3): −

SMILES: c1ccc(Nc2c(-c3ccccc3)nc3cnccn23)cc1 [compound 23, Phenyl-(2-phenyl-imidazo[1,2-a]pyrazin-3-yl)-amine]
- EGFR (L858R) growth restoration (EGFR (L858R)): +
- FGFR-3 growth restoration (FGFR-3): −
- ErbB2 growth restoration (ErbB2): −
- PDGFRa growth restoration (PDGFRa): −
- FGFR-2 growth restoration (FGFR-2): −
- CSF-1R growth restoration (CSF-1R): −
- FLT3 growth restoration (FLT3): −

SMILES: Cc1cccc(Nc2c(-c3ccccc3)nc3c(C)nccn23)c1 [compound 43, (8-Methyl-2-phenyl-imidazo[1,2-a]pyrazin-3-yl)-m-tolyl-amine]
- EGFR (L858R) growth restoration (EGFR (L858R)): −
- FGFR-3 growth restoration (FGFR-3): −
- ErbB2 growth restoration (ErbB2): −
- PDGFRa growth restoration (PDGFRa): −
- FGFR-2 growth restoration (FGFR-2): −
- CSF-1R growth restoration (CSF-1R): −
- FLT3 growth restoration (FLT3): −

SMILES: Cc1nccn2c(Nc3ccccc3)c(-c3ccccc3)nc12 [compound 39, (8-Methyl-2-phenyl-imidazo[1,2-a]pyrazin-3-yl)-phenyl-amine]
- EGFR (L858R) growth restoration (EGFR (L858R)): +
- FGFR-3 growth restoration (FGFR-3): −
- ErbB2 growth restoration (ErbB2): −
- PDGFRa growth restoration (PDGFRa): −
- FGFR-2 growth restoration (FGFR-2): −
- CSF-1R growth restoration (CSF-1R): −
- FLT3 growth restoration (FLT3): −

SMILES: Cc1nccn2c(Nc3cccc(F)c3)c(-c3ccccc3)nc12 [compound 44, (3-Fluoro-phenyl)-(8-methyl-2-phenyl-imidazo[1,2-a]pyrazin-3-yl)-amine]
- EGFR (L858R) growth restoration (EGFR (L858R)): +
- FGFR-3 growth restoration (FGFR-3): −
- ErbB2 growth restoration (ErbB2): −
- PDGFRa growth restoration (PDGFRa): −
- FGFR-2 growth restoration (FGFR-2): −
- CSF-1R growth restoration (CSF-1R): −
- FLT3 growth restoration (FLT3): −
